The subject of assay [1] is human umbilical vein endothelial cells (HUVEC). The assay is described as follows: HUVEC proliferation assay. To be noted: Homo sapiens, HUVEC, Table 3. In kind it is cell-based. In a few lines: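 Readout was MTT dye reduction (A595) after 72 h of stimulation with VEGF at 6 ng/ml final. Compound, in 0.1% DMSO final, was added 1 h before VEGF to HUVEC starved 24 h in 1% FBS. % inhibition was scaled between VEGF-alone and unstimulated wells; IC50 was fitted from triplicate dose curves.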

The subject of assay [2] is VEGF dependent retinal neovascularization. As to the kind of experiment: In vivo assay in neonatal rat model of retinopathy of prematurity. To be noted: intravitreal injection. The procedure: In Vivo Assay of Retinal Vascular Development in Neonatal Rat Model of Retinopathy of Prematurity
A second model of VEGF dependent retinal neovascularization was employed to evaluate the activities of this series of compounds. In this model (Penn et. al, Invest. Ophthalmol. Vis. Sci., 36, 2063, (1995)), rats pups (n=16) with their mother are placed in a computer controlled chamber that regulates the concentration of oxygen. The animals are exposed for 24 hours to a concentration of 50% oxygen followed by 24 hours at a concentration of 10% oxygen. This alternating cycle of hyperoxia followed by hypoxia is repeated 7 times after which the animals are removed to room air (P14). Compounds are administered via intravitreal injection upon removal to room air and the animals are sacrificed 6 days later (P20). The isolated retinas are then isolated, stained mounted and analyzed as detail above in the development model. The effectiveness was also graded as is described for the development model.

Assay [3] addresses T1, phosphorylated VEGF-R2Δ50 (FLVK-P) (Homo sapiens, UniProt P35968, DEL940-989/E990V).
T1 construct: VEGF-R2Δ50 contains residues 806-939 and 990-1171; made in house; host or cells: baculovirus/insect cells
The assay is described as follows: VEGF-R2 coupled spectrophotometric (FLVK-P) assay. Type of assay: biochemical. Conditions: Table 3; at 50 nM. In a few lines:
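Baculovirus-expressed human VEGF-R2Δ50 (residues 806-939/990-1171, E990V) was autophosphorylated with 3 mM ATP, 40 mM MgCl2 for 2 h at 4° C. ADP formation was coupled via PK/LDH to NADH oxidation, read at 340 nm, with 5.1 mM poly(E4Y1), 1 mM ATP, 25 mM MgCl2, Hepes pH 7.5. Ki came from activity across compound concentrations.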

The target of a further assay is T2, FGF-R1 (Homo sapiens, UniProt P11362, C488A/C584S/L457V).
T2 construct: starting from the endogenous methionine residue 456 to glutamate 766; made in house; host or cells: baculovirus vector expression system
As to the kind of experiment: FGF-R spectrophotometric assay. Type of assay: biochemical. Conditions: Table 3; % inh @ 1 uM; read-out: FGF-P Ki (nM) (% inh @ 1 uM). The procedure, abridged:
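Kinase domain (Met456–Glu766, baculovirus-expressed) used at 50 nM in a spectrophotometric assay run as for VEGF-R2. Substrates were 2 mM ATP and 15 mM poly(E4Y1).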

For a further assay, the target named is T3, LCK tyrosine kinase (Homo sapiens, UniProt P06239, C224D/P223M).
T3 construct: starting from amino acid residue 223 to the end of the protein at residue 509; made in house; host or cells: insect cells
As to the kind of experiment: LCK spectrophotometric assay. In kind it is biochemical. Conditions: Table 3, read-out: LCK (% inh @ 1 uM).

A further assay relates to VEGF. As to the kind of experiment: In vivo assay of retinal vascular development in neonatal rats. On the set-up: species or system rat. Conditions: development model; intravitreal, 2 μl of 5 mg/ml initial drug concentration. The text has this:
In Vivo Assay of Retinal Vascular Development in Neonatal Rats
The development of the retinal vascular in rats occurs from postnatal day 1 to postnatal day 14 (P1-P14). This process is dependent on the activity of VEGF (J. Stone, et al, J. Neurosci., 15, 4738 (1995)). […] To assess the ability of specific compounds to inhibit the activity of VEGF in vivo, compounds were formulated in an appropriate vehicle, usually 50% polyethylene glycol, average molecular weight 400 daltons, and 50% solution of 300 mM sucrose in deionized water. Typically, two microliters (2 μl) of the drug solution was injected into the midvitreous of the eye of rat pups on postnatal day 8 or 9. Six days after the intravitreal injection, the animals were sacrificed and the retinas dissected free from the remaining ocular tissue. […] The individual retinas are then flat-mount onto glass slides and examined to determine the extent of vascularization. […] The amount of vessel regression was used to assess the relative potency of the compounds after in vivo administration. Vessel regression is graded on subjective scale of one to three pluses, with one plus being detectable regression judged to be approximately 25 percent or less, two pluses being judged to be approximately 25-75% regression and three pluses give to retinas with near total regression (approximately 75% or greater).

In assay [4] the target is T4, unphosphorylated VEGF-R2Δ50 (FLVK) (Homo sapiens, UniProt P35968, DEL940-989/E990V).
T4 construct: VEGF-R2Δ50 contains residues 806-939 and 990-1171; made in house; host or cells: baculovirus/insect cells
As to the kind of experiment: VEGF-R2 coupled spectrophotometric assay, unphosphorylated enzyme (FLVK). In kind it is biochemical. Conditions: Table 3; some entries 'Slow binder'. In a few lines:
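Unphosphorylated VEGF-R2Δ50 (5 to 40 nM) with 20 mM poly(E4Y1), 3 mM ATP, 60 mM MgCl2, 2 mM MnCl2 in 200 mM Hepes pH 7.5. ADP production coupled via PK/LDH to NADH oxidation, read at 340 nm. Ki from activity at varying compound concentrations.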

T2 sequence (P11362 456-766 L457V/C488A/C584S): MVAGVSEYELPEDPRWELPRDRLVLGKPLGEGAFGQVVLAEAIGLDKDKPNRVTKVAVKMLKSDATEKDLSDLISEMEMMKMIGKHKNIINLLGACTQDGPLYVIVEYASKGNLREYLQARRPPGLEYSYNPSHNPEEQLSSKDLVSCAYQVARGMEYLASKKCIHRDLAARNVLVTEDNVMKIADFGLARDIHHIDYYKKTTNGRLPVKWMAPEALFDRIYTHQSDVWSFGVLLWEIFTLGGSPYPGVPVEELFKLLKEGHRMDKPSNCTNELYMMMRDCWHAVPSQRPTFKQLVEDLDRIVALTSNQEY
T1 sequence (P35968 with tags, fused parts or gaps DEL940-989/E990V limits assumed): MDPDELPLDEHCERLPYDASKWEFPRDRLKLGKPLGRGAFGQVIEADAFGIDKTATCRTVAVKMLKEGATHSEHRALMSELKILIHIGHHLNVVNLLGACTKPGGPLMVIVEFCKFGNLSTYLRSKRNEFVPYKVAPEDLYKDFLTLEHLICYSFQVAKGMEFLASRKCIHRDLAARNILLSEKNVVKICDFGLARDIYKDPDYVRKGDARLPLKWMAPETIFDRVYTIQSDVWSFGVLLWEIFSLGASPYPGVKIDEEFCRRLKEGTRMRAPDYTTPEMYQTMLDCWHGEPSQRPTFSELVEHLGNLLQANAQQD
T4 sequence (P35968 with tags, fused parts or gaps DEL940-989/E990V limits assumed): as above
T3 sequence (P06239 223-509 P223M/C224D): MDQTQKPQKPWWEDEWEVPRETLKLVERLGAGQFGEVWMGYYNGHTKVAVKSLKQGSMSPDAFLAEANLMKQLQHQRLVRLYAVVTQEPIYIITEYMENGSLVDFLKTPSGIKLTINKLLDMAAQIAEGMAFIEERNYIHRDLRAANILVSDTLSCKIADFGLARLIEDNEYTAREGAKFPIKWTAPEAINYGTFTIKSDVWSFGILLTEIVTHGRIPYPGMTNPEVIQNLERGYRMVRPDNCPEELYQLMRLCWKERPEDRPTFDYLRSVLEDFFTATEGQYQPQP

In assay [1], `COc1cccc(C(=O)Nc2ccc(C)c(-c3noc(-c4sc(Nc5cc(OC)c(OC)c(OC)c5)nc4N)n3)c2)c1` [D(74), 3-[3-[(3-methoxybenzoyl)amino]-6-methyl-phenyl]-5-[2-[(3,4,5-trimethoxyphenyl)amino]-4-amino-5-thiazolyl]-1,2,4-oxadiazole] registered an IC50 of 5.2 nM. Moreover, the Vessel regression grade result in assay [2] is recorded as “++ (two pluses being judged to be approximately 25-75% regression)”. In addition, the inhibition at 0.05 µM in assay [3] was 91%. Also, the inhibition at 1 µM on FGF-R1 was 61%; on LCK tyrosine kinase it was 92%.

Turning to `CCn1nc(C)cc1C(=O)Nc1ccc(C)c(-c2noc(-c3sc(Nc4ccc(CO)cc4)nc3N)n2)c1` [B(30)], the Vessel regression grade entry with VEGF was “++ (two pluses being judged to be approximately 25-75% regression)”. Further, the Ki in assay [4] was found to be 0.085 nM.

The record behind these values is patent publication US6620828B2, “Thiazole compounds and pharmaceutical compositions for inhibiting protein kinases and methods for their use” (Agouron Pharmaceuticals, Inc., priority 1999, dated 2003).
